The CheMixHub ionic liquid set

Test: xn = mol fraction of the nth substance listed

CC[n+]1ccn(C)c1.N#C[S-] + CCOS(=O)(=O)[O-].CC[n+]1ccn(C)c1
100 kPa
Conditions	electrical conductivity [S/m]	viscosity [mPa·s]
298.15 K, x1 = 0.67	1.16	43.5
308.15 K, x1 = 0.199	0.688	61.2
313.15 K, x1 = 0.429	1.19	43.1
318.15 K, x1 = 0.9505	3.6	15.57
323.15 K, x1 = 0.899	3.66	13.3
328.15 K, x1 = 0.429	–	22.05
333.15 K, x1 = 0.32	–	22.93
338.15 K, x1 = 0.899	–	9.45
343.15 K, x1 = 0.32	–	17.43
343.15 K, x1 = 0.429	–	14.75
348.15 K, x1 = 0.9505	–	7.21

CC[NH3+].O=[N+]([O-])[O-] + CC[N+](CC)(CC)CC.O=[N+]([O-])[O-]
Conditions	viscosity [mPa·s]
338.15 K, 101 kPa, x2 = 0	12.5

CC[NH3+].O=[N+]([O-])[O-] + CC[NH2+]CC.O=[N+]([O-])[O-]
Conditions	electrical conductivity [S/m]
323.15 K, 101 kPa, frequency 0.00293 MHz, x2 = 0	4.22

101 kPa, x2 = 0
Conditions	viscosity [mPa·s]
323.15 K	17.6
333.15 K	13.8

CC[NH3+].O=[N+]([O-])[O-] + CC[NH+](CC)CC.O=[N+]([O-])[O-]
101 kPa, frequency 0.00293 MHz, x2 = 0
Conditions	electrical conductivity [S/m]
293.15 K	1.93
298.15 K	2.25
313.15 K	3.37
323.15 K	4.22

101 kPa, x2 = 0
Conditions	viscosity [mPa·s]
293.15 K	43.5
298.15 K	36.5
313.15 K	22.8
323.15 K	17.6

CC[n+]1ccn(C)c1.N#C[S-] + CC[n+]1ccn(C)c1.CS(=O)(=O)[O-] + O
100 kPa, x1 = 1, x2 = 0
Conditions	viscosity [mPa·s]
298.15 K	23.91
323.15 K	11.7

CC[n+]1ccn(C)c1.N#C[S-] + CC[n+]1ccn(C)c1.N#C[N-]C#N
100 kPa, x1 = 1
Conditions	electrical conductivity [S/m]	viscosity [mPa·s]
318.15 K	3.92	12.98
328.15 K	–	10.25
338.15 K	–	8.3
343.15 K	–	7.53

CC[S+](CC)CCOCCOCCOCC[S+](CC)CC.O=S(=O)([N-]S(=O)(=O)C(F)(F)F)C(F)(F)F.O=S(=O)([N-]S(=O)(=O)C(F)(F)F)C(F)(F)F + CC[n+]1ccn(C)c1.N#C[N-]C#N + O=S(=O)([N-]S(=O)(=O)C(F)(F)F)C(F)(F)F.[Li+]
100 kPa, x1 = 0.1475, x2 = 0.7497
Conditions	electrical conductivity [S/m]
298 K	0.673
303 K	0.826
313 K	1.15
323 K	1.46
333 K	1.79
343 K	2.05

CC[S+](CC)CCOCCOCC[S+](CC)CC.O=S(=O)([N-]S(=O)(=O)C(F)(F)F)C(F)(F)F.O=S(=O)([N-]S(=O)(=O)C(F)(F)F)C(F)(F)F + CC[n+]1ccn(C)c1.N#C[N-]C#N + O=S(=O)([N-]S(=O)(=O)C(F)(F)F)C(F)(F)F.[Li+]
100 kPa, x1 = 0.1539, x2 = 0.744
Conditions	electrical conductivity [S/m]
298 K	0.615
303 K	0.691
313 K	0.953
323 K	1.22
333 K	1.57
343 K	1.93

C[N+]1(CCOCCOCCOCCOCC[N+]2(C)CCCC2)CCCC1.N#C[N-]C#N.N#C[N-]C#N + CC[n+]1ccn(C)c1.N#C[N-]C#N + O=S(=O)([N-]S(=O)(=O)C(F)(F)F)C(F)(F)F.[Li+]
100 kPa, x1 = 0.2352, x2 = 0.6725
Conditions	electrical conductivity [S/m]
298 K	0.37
303 K	0.435
313 K	0.646
323 K	0.941
333 K	1.2
343 K	1.51

C[N+]1(CCOCCOCC[N+]2(C)CCCC2)CCCC1.N#C[N-]C#N.N#C[N-]C#N + CC[n+]1ccn(C)c1.N#C[N-]C#N + O=S(=O)([N-]S(=O)(=O)C(F)(F)F)C(F)(F)F.[Li+]
electrical conductivity [S/m], 100 kPa
Conditions	298 K	303 K	313 K	323 K	333 K	343 K
x1 = 0.2606, x2 = 0.6156	0.561	0.658	0.963	1.27	1.61	1.94
x1 = 0.2713, x2 = 0.6408	0.911	1.01	1.37	1.71	2.12	2.54

C[N+]1(CCOCC[N+]2(C)CCCC2)CCCC1.N#C[N-]C#N.N#C[N-]C#N + CC[n+]1ccn(C)c1.N#C[N-]C#N + O=S(=O)([N-]S(=O)(=O)C(F)(F)F)C(F)(F)F.[Li+]
100 kPa, x1 = 0.2938, x2 = 0.621
Conditions	electrical conductivity [S/m]
298 K	0.622
303 K	0.76
313 K	1.04
323 K	1.38
333 K	1.76
343 K	2.24

COC(=O)OC + CC[n+]1ccn(C)c1.O=S(=O)([N-]S(=O)(=O)C(F)(F)F)C(F)(F)F
101.3 kPa, x2 = 0
Conditions	viscosity [mPa·s]
288.15 K	0.668
293.15 K	0.628
298.15 K	0.588
303.15 K	0.553
308.15 K	0.524

C[N+]1(CCOCCOCC[N+]2(C)CCCC2)CCCC1.N#C[N-]C#N.N#C[N-]C#N + CC[n+]1ccn(C)c1.O=S(=O)([N-]S(=O)(=O)C(F)(F)F)C(F)(F)F + O=S(=O)([N-]S(=O)(=O)C(F)(F)F)C(F)(F)F.[Li+]
100 kPa, x1 = 0.4178, x2 = 0.4469
Conditions	electrical conductivity [S/m]
298 K	0.244
303 K	0.317
313 K	0.431
323 K	0.64
333 K	0.832
343 K	1.1

CC[n+]1ccn(C)c1.N#C[S-] + CC[n+]1ccn(C)c1.O=S(=O)([O-])C(F)(F)F
Conditions	viscosity [mPa·s]
293 K, 100 kPa, x1 = 0.5	36.4

OCCN(CCO)CCO + CC[n+]1ccn(C)c1.O=S(=O)([O-])C(F)(F)F
100 kPa
Conditions	electrical conductivity [S/m]	viscosity [mPa·s]
293.15 K, x1 = 0.084	–	52.9
298.15 K, x1 = 0.426	0.357	65.6
298.15 K, x1 = 0.539	0.232	87.6
298.15 K, x1 = 0.875	0.019	320
298.15 K, x1 = 0.969	0.00321	–
298.15 K, x2 = 0.003	0.000411	–
298.15 K, x2 = 0.006	0.00071	–
298.15 K, x2 = 0.017	0.00188	–
303.15 K, x1 = 0.084	–	36.1
303.15 K, x1 = 0.167	–	37
303.15 K, x1 = 0.641	–	87.1
303.15 K, x2 = 0.006	–	400
313.15 K, x1 = 0.167	1.19	26
313.15 K, x1 = 0.723	0.185	65.8
313.15 K, x2 = 0.003	0.00117	–
313.15 K, x2 = 0.006	0.00204	198.3

Cc1ncc(C[n+]2csc(CCO)c2C)c(N)n1.Cl.[Cl-] + CC[n+]1ccn(C)c1.O=S(=O)([O-])O + O
viscosity [mPa·s], 100 kPa
Conditions	x1 = 0.0002695, x2 = 0	x1 = 0.0005398, x2 = 0	x1 = 0.0008099, x2 = 0	x1 = 0.00108, x2 = 0	x1 = 0.00135, x2 = 0	x1 = 0.00162, x2 = 0	x1 = 0.001889, x2 = 0
293.15 K	1.01	1.02	1.03	1.03	1.04	1.05	1.06
298.15 K	0.9	0.91	0.92	0.93	0.93	0.94	0.95
303.15 K	0.81	0.81	0.82	0.83	0.84	0.85	0.86
308.15 K	0.73	0.73	0.74	0.75	0.76	0.76	0.77
313.15 K	0.66	0.67	0.68	0.68	0.69	0.7	0.71
318.15 K	0.61	0.61	0.62	0.63	0.64	0.64	0.65

O=C1O[C@H]([C@@H](O)CO)C(O)=C1O + CC[n+]1ccn(C)c1.O=S(=O)([O-])O + O
viscosity [mPa·s], 100 kPa
Conditions	x1 = 0.0002709, x2 = 0	x1 = 0.0005412, x2 = 0	x1 = 0.0008101, x2 = 0	x1 = 0.001079, x2 = 0	x1 = 0.001351, x2 = 0	x1 = 0.001618, x2 = 0	x1 = 0.00189, x2 = 0
293.15 K	1.01	1.01	1.02	1.02	1.03	1.03	1.04
298.15 K	0.9	0.9	0.91	0.91	0.92	0.92	0.93
303.15 K	0.8	0.81	0.81	0.82	0.82	0.83	0.84
308.15 K	0.72	0.73	0.73	0.74	0.74	0.75	0.76
313.15 K	0.66	0.66	0.67	0.67	0.68	0.68	0.69
318.15 K	0.61	0.61	0.62	0.62	0.63	0.63	0.64
